Series [1] deals with RAW264.7 cells. The series can be described thus: MTT cell viability assay. Format: cell-based, mouse. Conditions: 10 µg/mL, 24 h. Here is the method:
The mouse macrophage cell line RAW264.7 was obtained from the American Type Culture Collection (ATCC, Manassas, VA, USA). The cells were cultured in DMEM supplemented with 10% fetal bovine serum (FBS), penicillin (100 U/mL), and streptomycin (100 μg/mL) at 37 °C with 5% CO2. The medium was replaced every 2 days. After treatment with chemicals, the cell morphological changes were observed under a microscope and images are captured before cell viability assay.
Cell viability was determined calorimetrically using a 3-(4,5-dimethylthiazole-2-yl)-2,5-diphenyl tetrazolium bromide (MTT) reagent (5 mg/mL in phosphate buffered saline (PBS), Duchefa Biochemie, Haarlem, The Netherlands). The MTT assay procedures were performed as described previously. Briefly, a 24-well plate (5 × 10^4 cells/well) was seeded with RAW264.7, a mouse macrophage cell line. After 24 h of chemical treatment, each well was filled with 20 µL of 5 mg/mL MTT solution (0.1 mg/mL) and incubated for 4 h. After aspirating the supernatants, the formazan crystals in each well were dissolved in 200 µL of dimethyl sulfoxide (DMSO) for 30 min at 37 °C, and the 24-well plates were read at 570 nm with a microplate reader (Bio-Rad, Hercules, CA, USA). Data are expressed as a percentage of viable cells compared with the control.

Series [2] deals with T1, Human neutrophil elastase (HNE, EC 3.4.21.37) (Homo sapiens, UniProt P08246).
T1 construct: purchased Sigma-Aldrich
T1 sequence (P08246 30-267): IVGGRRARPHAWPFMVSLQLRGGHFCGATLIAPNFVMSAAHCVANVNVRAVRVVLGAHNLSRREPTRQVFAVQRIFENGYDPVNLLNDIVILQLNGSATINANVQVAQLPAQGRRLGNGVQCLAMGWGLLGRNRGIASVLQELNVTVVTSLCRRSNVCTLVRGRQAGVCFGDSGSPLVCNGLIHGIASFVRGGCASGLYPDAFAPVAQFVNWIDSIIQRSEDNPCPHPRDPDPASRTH
The series can be described thus: Human neutrophil elastase inhibition, spectrophotometric, MeOSuc-AAPV-pNA substrate. Type of series: biochemical. To be noted: for Ki: Dixon plots, read-out: Ki (inhibition constant); for Type of Inhibition: Lineweaver-Burk and Dixon plots, reversibility from activity vs enzyme concentration plots; for IC50: concentration that caused 50% enzyme activity loss, three sets of experiments. Here is the method:
Human neutrophil elastase (EC 3. 4. 21. 37) (Sigma-Aldrich, St. Louis, MO, USA) activity was measured in accordance with the previous description with subtle modification, by observing the formation of p-nitroaniline after the hydrolysis of N-methoxysuccinyl-Ala-Ala-Pro-Val-p-nitro anilide at 405 nm. The inhibitors were dissolved in dimethyl sulfoxide (DMSO) and diluted to a few concentrations. In brief, in a 96-well plate, 10 µL of inhibitor solution and 40 µL of 1.5 mM of MeOSuc-AAPV-pNA were added as a substrate in the 0.02 mM Tris-HCl buffer solutions (pH 8.0). Then, 20 µL of human neutrophil elastase (0.2 unit/mL) was added to the mixture. The test mixtures were incubated and mixed for 15 min at room temperature and then screened at 405 nm for 30 min every 30 s.
Activity (%) = 100 [1/(1 + ([I]/IC50))].(1)
The modalities of HNE inhibition were estimated in experiments using particular concentrations of the substrates and inhibitors, respectively. The Michaelis–Menten constant (Km) and maximal velocity (Vmax) were investigated by a Lineweaver–Burk plot. The KI, dissociation constants for inhibitor binding to the free enzyme were calculated using a Dixon plot. Equations (2)–(4) are representatives for deriving the aforementioned parameters. (2) 1/V=Km/Vmax(1+[I]/Ki)×1/S+1/Vmax (3) Slop=Km/KiVmax[I]+Km/Vmax (4) Intercept=1/KiVmax[I]+1/Vmax.

The subject of series [3] is TNF-α mRNA in LPS-stimulated RAW264.7 cells. The series can be described thus: TNF-α mRNA expression by RT-PCR. Conditions: 1 or 3 µg/mL, n = 6, p < 0.05. Format: cell-based, mouse. Here is the method:
Total RNA was isolated from cultured RAW264.7 cells using TRIzol reagent (Ambion®, Carlsbad, CA, USA) according to the manufacturer’s instructions. First strand cDNA was synthesized from the total RNA (3 μg) using oligo dT (DiaStar RT Kit, SolGent, Daejeon, Korea) and was used as a template for PCR amplification with G-Taq polymerase (Cosmogenetech, Seoul, Korea). The first-strand cDNA was quantified using a spectrophotometer (NanoDrop® ND-1000, NanoDrop Technologies, Wilmington, […], USA). The quantified cDNA was used as a template. PCR assay was performed with specific primers for inducible nitric oxide (iNOS), IL-1β, and TNF-α. The PCR steps included initial denaturation at 94 °C for 5 min, then 28 cycles at 94 °C for 30 s, 57 °C for 30 s, and 72 °C for 30 s, and a final extension step at 72 °C for 10 min. The amplified PCR products were separated in 1.5% agarose gel, and the gel was stained with ethidium bromide. The bands were visualized using the iBright^TM CL1500 imaging system (Thermo Scientific Fisher/Life Technologies Holdings Pte Ltd., Singapore). The DNA fragments were directly sequenced with the ABI PRISM® 3100-Avant Genetic Analyzer (Applied Biosystems, Carlsbad, CA, USA).

The test system of series [4] is IL-1β in LPS-stimulated RAW264.7 cells. The series can be described thus: IL-1β concentration by ELISA. Format: cell-based, mouse. Conditions: 1 or 3 µg/mL 2 h prior to LPS 1 µg/mL for 16 h; n = 6, p < 0.05. Here is the method:
RAW264.7 cell (2 × 10^5 cells/well) were cultured in a 6-well plate for 24 h and treated with compounds (1 or 3 µg/mL) 2 h prior to LPS treatment, followed by LPS (1 µg/mL) for 16 h. The concentration of pro-inflammatory cytokines in the collected supernatant was quantified using an ELISA kit (R&D system, Minneapolis, MN, USA) according to the manufacturer’s instructions. Briefly, 50 μL of assay diluent, sample, and standards were added to the ELISA well plate, which were pre-coated with anti-mouse IL-1β and TNF-α antibody. The plates were then covered with adhesive strip, agitated, and incubated for 2 h at room temperature. The ELISA well-plate was washed five times with a wash buffer, then 100 μL of mouse IL-1β and TNF-α conjugates was added and incubated at room temperature for 2 h. The plate was washed five times, 100 μL of substrate solution was added to each well, and incubated for 30 min in the dark. The reaction was quenched by the addition of 100 μL stop solution to each well, and the absorbance was read 450 nm/570 nm with an ELISA reader (Molecular Devices, Sunnyvale, CA, USA).

A word on the Ki: it is a dissociation constant, usually derived from enzyme kinetics or from competition with a known ligand. In general, IC50 refers to the concentration that gives 50% inhibition. The low end stands for inhibition by little substance, the high end for a need for much substance.

Turning to `CC(C)=CCC/C(C)=C/C[C@@H](O)/C(C)=C/CC[C@@]1(C)[C@H](CCCO)/C(=C(/C)C=O)CC[C@]1(C)O` [Compound 1, isoiridogermanal], in series [1], the “reduction of cell viability” value was found to be 28.8 ± 4.4%. Also, in series [2], the Ki worked out at 12.7 µM, the “Type of Inhibition” value is given as “noncompetitive inhibition” and it took 14.4 ± 0.3 µM to reach half-maximal inhibition (IC50). Moreover, the “LPS-upregulated TNF-α mRNA level” value in series [3] was “noticeably decreased”. In addition, in series [4], the “LPS-upregulated IL-1β concentration” value was “noticeably decreased”.

Take `CC(C)=CCCC(C)=CCC(O)C(C)=CCCC1(C)C(CCCO)C(=C(C)C=O)CCC1(C)O` (stereo not drawn) [Compound 2, iridobelamal A]: the “reduction of cell viability” value in series [1] amounted to 23.4 ± 5.1%. In addition, in series [2], the Ki amounted to 24.9 µM, the “Type of Inhibition” value is “noncompetitive inhibition” and the half-inhibitory concentration (IC50) was found to be 27 ± 0.6 µM. The “LPS-upregulated TNF-α mRNA level” value in series [3] is “noticeably decreased”. Besides, in series [4], the “LPS-upregulated IL-1β concentration” value is listed as “noticeably decreased”.

Values taken from article PMC8588536, “Iridal-Type Triterpenoids Displaying Human Neutrophil Elastase Inhibition and Anti-Inflammatory Effects from Belamcanda chinensis” (Molecules, 2021).
